Assays:
[1] = test system: TEAD/YAP promoter element in MCF7-Luc cells; assay: Cell-based TEAD-promoter transcriptional activity assay (MCF-7 TEAD luciferase); details: MCF-7 TEAD luciferase assay, 24 hrs
Description: Luciferase based TEAD-transcriptional cell-based reporter assay: To measure the effect of the TEAD inhibitors disclosed herein on TEAD transcriptional activity in cell-based systems, we employed a stable MCF7 cell line expressing luciferase under a consensus synthetic TEAD/YAP promoter element (MCF7-Luc, BPS Bioscience, Catalog #60618). This MCF7-TEAD-Luc cell line has been extensively validated with both genetic and pharmacological intervention, showing inhibition of luciferase expression and luminescence in response to ablation of the TEAD/YAP pathway. MCF7-Luc cells were plated at 10,000 cells per well in white 384-well plates and settled by a quick spin. The media was MEM (Gibco) supplemented with 10% fetal bovine serum (ExCell), selenium-transferrin-insulin mix (Gibco), 1× non-essential amino acids (Gibco) and sodium pyruvate (Gibco). Cells were allowed to attach and grow overnight (37° C., 5% CO2 in humidified incubator), and test compounds were added the next day. Compounds were dissolved at 1000× fold excess in DMSO and made into 2-fold serial dilution, and added to media at 30 μL of media per well. A DMSO-only well serves a vehicle control. The highest concentration of drug in media was 1,000 nM. Positive control compounds include K975 (pan-TEAD inhibitor) and negative control (Actinomycin). Cells were incubated for 24 hrs with test compounds and positive controls, after which time, the luminescence was measured by the One-Glo luciferase kit (Promega). 30 μL of One-Glo reagent was added to each well and shaken for 8 minutes to lyse the cells. The plates were centrifugated at 1000 RPM for 1 minute to settle all liquid in the well and eliminate bubbles. Luminescence was quantified using an ENVision plate reader (Perkin Elmer). Percent inhibition of luminescence by test compound was expressed as a function of test compound concentration, with the no-test compound DMSO only wells serving as baseline. EC50 values for each compound were calculated with a non-linear asymptotic line fit.

MSTO-211H xenograft = assay: Inhibition of mouse xenograft MSTO-211H tumors; format: in vivo, BALB/c nude mice; details: 12.5 mg/kg, PO, BID; for Tumor Volume (mean): day 27 (Table 16); for Relative T/C (treated/control relative tumor volume ratio) / TGI: day 27; for Relative T/C (treated/control relative tumor volume ratio): T/C(%) = TRTV / CRTV × 100; for TGI: TGI = [1 − (Ti − T0)/ (Vi − V0)] × 100
Description: This study evaluated the in vivo anti-tumor efficacy of test compounds in BALB/c nude mice for treatment of MSTO-211H xenograft of lung cancer.
• Species: Mus Musculus • Strain: BALB/c nude • Age: 6-8 weeks • Sex: female • Body weight: 18-22 g • Number of animals inoculated with tumor: 80 mice • Number of animals enrolled in the treatment: 36 mice • Number of unenrolled animals: 44 mice • Animal supplier: Beijing Vital River Biotechnology Experimental Animal Co. Ltd Certification number: 20170011010591
The MSTO-211H tumor cells were maintained in RPMI 1640 medium supplemented with 10% Fetal bovine serum and 1% Antibiotic-Antimycotic at 37° C. in an atmosphere of 5% CO2 in air. The tumor cells were routinely subcultured twice weekly by trypsin-EDTA. The cells growing in an exponential growth phase with 95% cell survival or above were harvested, and counted for tumor inoculation.
Each mouse was inoculated subcutaneously at the right flank with MSTO-211H tumor cells (5×10^6+50% matrigel/0.2 mL) for tumor development. Animals were marked with earrings with unique 6 significant figure number for identification. The treatments were started when the average tumor volume reached an average size of 181 mm^3.
The major endpoint was to see if the tumor growth could be delayed or mice could be cured. Tumor volume was measured twice a week in two dimensions using a caliper, and the volume was expressed in mm^3 using the formula: V=0.5 a×b^2 where a and b are the long and short diameters of the tumor, respectively. The tumor size was then used for calculations of T/C value. The TGI value (in percent) or the T/C value (in percent) is an indication of antitumor effectiveness; T and C are the mean tumor volumes or tumor weights of the treated and control groups, respectively, on a given day.
TGI was calculated for each group using the formula: TGI (%)=[1−(Ti−T0)/(Vi−V0)]×100; Ti is the average tumor volume of a treatment group on a given day, To is the average tumor volume of the treatment group on the day of treatment start, Vi is the average tumor volume of the vehicle control group on the same day with Ti, and V0 is the average tumor volume of the vehicle group on the day of treatment start.
Relative T/C (%)=TRTV/CRTV×100 (RTV(%)=Vt/V0×100, Vt is the average tumor volume on a given day, V0 is the average tumor volume on the first day of treatment. TRTV is the RTV of a treatment group, and the CRTV is the RTV of the vehicle control group.)
Summary statistics, including mean and the standard error of the mean (SEM), were provided for the tumor volume of each group at each time point.
Statistical analysis of difference in tumor volume among the groups was conducted on the data obtained at the end of the study.
One-tailed T test was performed to compare tumor volumes between two groups. All data are analyzed using GraphPad Prism 6.0. p<0.05 is considered to be statistically significant.
The antitumor effectiveness of the study was analyzed on PG-D27 when vehicle group reached 588 mm^3.

[2] = day 0 after the start of treatment
[3] = day 3 after the start of treatment
[4] = day 6 after the start of treatment
[5] = day 10 after the start of treatment
[6] = day 13 after the start of treatment
[7] = day 17 after the start of treatment
[8] = day 20 after the start of treatment
[9] = day 23 after the start of treatment
[10] = day 27 after the start of treatment

| Compound | EC50 ([1]; Homo sapiens, MCF7) [nM] | EC50 [1] [nM] | Tumor size (mean) (MSTO-211H xenograft; [2]) [mm^3] | Tumor size (mean) (MSTO-211H xenograft; [3]) [mm^3] | Tumor size (mean) (MSTO-211H xenograft; [4]) [mm^3] | Tumor size (mean) (MSTO-211H xenograft; [5]) [mm^3] | Tumor size (mean) (MSTO-211H xenograft; [6]) [mm^3] | Tumor size (mean) (MSTO-211H xenograft; [7]) [mm^3] | Tumor size (mean) (MSTO-211H xenograft; [8]) [mm^3] | Tumor size (mean) (MSTO-211H xenograft; [9]) [mm^3] | Tumor Volume (mean) (MSTO-211H xenograft) [mm^3] | Relative T/C (treated/control relative tumor volume ratio) (MSTO-211H xenograft) [%] | TGI (MSTO-211H xenograft) [%] | Tumor size (mean) (MSTO-211H xenograft; [10]) [mm^3] |
| --- | --- | --- | --- | --- | --- | --- | --- | --- | --- | --- | --- | --- | --- | --- |
| C[C@H](NC(=O)c1cnc2c(C3=CC[C@@H](C(F)(F)F)CC3)cccc2c1)c1ncco1 (single isomer, unassigned) [Compound 19, N-(1-(oxazol-2-yl)ethyl)-8-(4-(trifluoromethyl)cyclohex-1-en-1-yl)quinoline-3-carboxamide] | < 200 |  |  |  |  |  |  |  |  |  |  |  |  |  |
| C[C@H](NC(=O)c1cnc2c(C3=CC[C@@H](C(F)(F)F)CC3)cccc2c1)c1ncco1 (single isomer, unassigned) [Compound 20, N-(1-(oxazol-2-yl)ethyl)-8-(4-(trifluoromethyl)cyclohex-1-en-1-yl)quinoline-3-carboxamide] |  | < 200 |  |  |  |  |  |  |  |  |  |  |  |  |
| C[C@H](NC(=O)c1cnc2c(C3=CCC(C(F)(F)F)CC3)cccc2c1)c1ccccn1 (stereo partly drawn) [Compound 2, N—((S)-1-(pyridin-2-yl)ethyl)-8-(4-(trifluoromethyl)cyclohex-1-en-1-yl)quinoline-3-carboxamide] | < 200 |  |  |  |  |  |  |  |  |  |  |  |  |  |
| C[C@H](CO)NC(=O)c1cnc2c(C3=CCC(C(F)(F)F)CC3)cccc2c1 (stereo partly drawn) [Compound 7, N—((R)-1-hydroxypropan-2-yl)-8-(4-(trifluoromethyl)cyclohex-1-en-1-yl)quinoline-3-carboxamide] |  |  | 181 | 245 | 219 | 124 | 99 | 86 | 109 | 117 | 126 | 21.4 | 113.6 | 126 |
| O=C(NCc1ncco1)c1cnc2c(C3=CCC(C(F)(F)F)CC3)cccc2c1 (stereo not shown) [Compound 11, N-(oxazol-2-ylmethyl)-8-(4-(trifluoromethyl)cyclohex-1-en-1-yl)quinoline-3-carboxamide] | < 200 |  |  |  |  |  |  |  |  |  |  |  |  |  |
| COC[C@H](CO)NC(=O)c1cnc2c(C3=CCC(C(F)(F)F)CC3)cccc2c1 (stereo partly drawn) [Compound 62, N—((S)-1-hydroxy-3-methoxypropan-2-yl)-8-(4-(trifluoromethyl)cyclohex-1-en-1-yl)quinoline-3-carboxamide] |  |  | 181 | 224 | 228 | 149 | 111 | 82 | 88 | 101 | 104 | 17.9 | 119.1 | 104 |
| COc1cc(C2=CCC(C(F)(F)F)CC2)c2ncc(C(=O)N[C@H](C)c3ncco3)cc2c1 (stereo partly drawn) [Compound 109, 6-methoxy-N—((R)-1-(oxazol-2-yl)ethyl)-8-(4-(trifluoromethyl)cyclohex-1-en-1-yl)quinoline-3-carboxamide] |  |  | 181 | 216 | 174 | 89 | 59 | 44 | 44 | 46 | 58 | 10.1 | 130.2 | 58 |
| COc1cc(C2=CCC(C(F)(F)F)CC2)c2ncc(C(=O)N[C@H](C)CO)cc2c1 (stereo partly drawn) [Compound 110, N—((R)-1-hydroxypropan-2-yl)-6-methoxy-8-(4-(trifluoromethyl)cyclohex-1-en-1-yl)quinoline-3-carboxamide] |  |  | 181 | 207 | 179 | 107 | 75 | 51 | 42 | 53 | 50 | 8.5 | 132.4 | 50 |
| C[C@@H](NC(=O)c1cnc2c(C3=CCC4(CC3)CC4)cccc2c1)c1ncco1 [Compound 166, (R)—N-(1-(oxazol-2-yl)ethyl)-8-(spiro[2.5]oct-5-en-6-yl)quinoline-3-carboxamide] |  |  | 181 | 192 | 177 | 153 | 145 | 139 | 148 | 184 | 219 | 38.1 | 90.7 | 219 |

Source: patent US20250223306A1, “TEAD INHIBITORS AND METHODS OF USE” (Sporos BioDiscovery, Inc., priority 2022, published 2025)
